Assay results published in patent US11053204B2, “Pyrimidinyloxy benzene derivatives as herbicides” (FMC Corporation, priority 2015, dated 2021).

Key:
Assay type in all cases: in vivo
[1] = system: waterhemp (common waterhemp, Amaranthus rudis); assay: Test C preemergence, plant response rating; details: Preemergence
How it was run: (§1)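 Greenhouse plants rated visually against untreated controls 13–15 d after treatment, scale 0 = no effect to 100 = complete control. Postemergence sprays went onto potted plants 2–18 cm tall (1–4 leaves); preemergence sprays onto soil freshly sown in loam–sand or silt loam, chemicals formulated in non-phytotoxic solvent with surfactant.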

[2] = system: blackgrass (Alopecurus myosuroides); assay: Test C preemergence, plant response rating; details: Preemergence
How it was run: as §1

[3] = system: ragweed (common ragweed, Ambrosia elatior); assay: Test C preemergence, plant response rating; details: Preemergence
How it was run: as §1

[4] = system: velvetleaf (Abutilon theophrasti); assay: Test C preemergence, plant response rating; details: Preemergence
How it was run: as §1

[5] = system: nutsedge, yellow (yellow nutsedge, Cyperus esculentus); assay: Test C preemergence, plant response rating; details: Preemergence
How it was run: as §1

[6] = system: ryegrass, Italian (Italian ryegrass, Lolium multiflorum); assay: Test C preemergence, plant response rating; details: Preemergence
How it was run: as §1

[7] = system: wheat (winter wheat, Triticum aestivum); assay: Test C preemergence, plant response rating; details: Preemergence
How it was run: as §1

[8] = system: crabgrass, large (large crabgrass, Digitaria sanguinalis); assay: Test C preemergence, plant response rating; details: Preemergence
How it was run: as §1

[9] = system: lambsquarters (Chenopodium album); assay: Test C preemergence, plant response rating; details: Preemergence
How it was run: as §1

corn (Zea mays) = assay: Test C preemergence, plant response rating; details: Preemergence
How it was run: as §1

[10] = system: morningglory (Ipomoea coccinea); assay: Test C preemergence, plant response rating; details: Preemergence
How it was run: as §1

[11] = system: oilseed rape (Brassica napus); assay: Test C preemergence, plant response rating; details: Preemergence
How it was run: as §1

[12] = system: foxtail, giant (giant foxtail, Setaria faberii); assay: Test C preemergence, plant response rating; details: Preemergence
How it was run: as §1

soybean (Glycine max) = assay: Test C preemergence, plant response rating; details: Preemergence
How it was run: as §1

[13] = system: ragweed (common ragweed, Ambrosia elatior); assay: Test A preemergence, visual injury rating; details: 0 to 100 scale (0 no effect, 100 complete control)
How it was run: (§2)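 Visual 0–100 rating (100 = complete control) taken about 10 d post-treatment relative to untreated checks. Preemergence: directed soil spray on sown loam/sand pots. Postemergence: seedlings 2–10 cm, 1–2 leaf. Non-phytotoxic solvent formulation with surfactant.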

[14] = system: Italian ryegrass (Lolium multiflorum); assay: Test A preemergence, visual injury rating; details: 0 to 100 scale (0 no effect, 100 complete control)
How it was run: as §2

[15] = system: giant foxtail (Setaria faberii); assay: Test A preemergence, visual injury rating; details: 0 to 100 scale (0 no effect, 100 complete control)
How it was run: as §2

[16] = system: pigweed (Amaranthus retroflexus); assay: Test A preemergence, visual injury rating; details: 0 to 100 scale (0 no effect, 100 complete control)
How it was run: as §2

O=C(CCCC(F)(F)F)c1c(Oc2ncc(Cl)cn2)cccc1C(F)(F)F [Compound 125]
0: Plant response rating, Nutsedge, Yellow ([5]; 31 g ai/ha, scale 0 to 100) | Plant response rating, Nutsedge, Yellow ([5]; 62 g ai/ha, scale 0 to 100) | Plant response rating, Wheat ([7]; 31 g ai/ha, scale 0 to 100) | Plant response rating, Wheat ([7]; 62 g ai/ha, scale 0 to 100) | Plant response rating, Corn (corn (Zea mays); 16 g ai/ha, scale 0 to 100) | Plant response rating, Corn (corn (Zea mays); 31 g ai/ha, scale 0 to 100) | Plant response rating, Soybean (soybean (Glycine max); 31 g ai/ha, scale 0 to 100) | Plant response rating, Soybean (soybean (Glycine max); 62 g ai/ha, scale 0 to 100)
85: Plant response rating, Ryegrass, Italian ([6]; 125 g ai/ha, scale of 0 to 100) | Plant response rating, Foxtail, Giant ([12]; 31 g ai/ha, scale 0 to 100)
60: Plant response rating, Blackgrass ([2]; 31 g ai/ha, scale 0 to 100) | Plant response rating, Blackgrass ([2]; 62 g ai/ha, scale 0 to 100) | Plant response rating, Velvetleaf ([4]; 62 g ai/ha, scale 0 to 100) | Plant response rating, Lambsquarters ([9]; 62 g ai/ha, scale 0 to 100)
95: Plant response rating, Lambsquarters ([9]; 125 g ai/ha, scale of 0 to 100)
10: Plant response rating, Ragweed ([3]; 31 g ai/ha, scale 0 to 100) | Plant response rating, Morningglory ([10]; 31 g ai/ha, scale 0 to 100) | Plant response rating, Morningglory ([10]; 62 g ai/ha, scale 0 to 100)
40: Plant response rating, Ryegrass, Italian ([6]; 62 g ai/ha, scale 0 to 100) | Ragweed plant response rating ([13]; 500 g ai/ha)
30: Plant response rating, Ryegrass, Italian ([6]; 31 g ai/ha, scale 0 to 100) | Plant response rating, Lambsquarters ([9]; 31 g ai/ha, scale 0 to 100)
98: Plant response rating, Crabgrass, Large ([8]; 31 g ai/ha, scale 0 to 100) | Plant response rating, Foxtail, Giant ([12]; 62 g ai/ha, scale 0 to 100)
80: Plant response rating, Oilseed Rape ([11]; 125 g ai/ha, scale of 0 to 100)
90: Plant response rating, Blackgrass ([2]; 125 g ai/ha, scale of 0 to 100)
5: Plant response rating, Blackgrass ([2]; 16 g ai/ha, scale 0 to 100) | Plant response rating, Ragweed ([3]; 62 g ai/ha, scale 0 to 100) | Plant response rating, Velvetleaf ([4]; 31 g ai/ha, scale 0 to 100) | Plant response rating, Nutsedge, Yellow ([5]; 125 g ai/ha, scale of 0 to 100) | Plant response rating, Wheat ([7]; 125 g ai/ha, scale of 0 to 100) | Plant response rating, Corn (corn (Zea mays); 125 g ai/ha, scale of 0 to 100) | Plant response rating, Corn (corn (Zea mays); 62 g ai/ha, scale 0 to 100) | Plant response rating, Oilseed Rape ([11]; 31 g ai/ha, scale 0 to 100)
50: Plant response rating, Morningglory ([10]; 125 g ai/ha, scale of 0 to 100) | Plant response rating, Oilseed Rape ([11]; 62 g ai/ha, scale 0 to 100)
70: Plant response rating, Ryegrass, Italian ([14]; 125 g ai/ha)
65: Plant response rating, Velvetleaf ([4]; 125 g ai/ha, scale of 0 to 100)
100: Plant response rating, Waterhemp ([1]; 125 g ai/ha, scale of 0 to 100) | Plant response rating, Waterhemp ([1]; 31 g ai/ha, scale 0 to 100) | Plant response rating, Waterhemp ([1]; 62 g ai/ha, scale 0 to 100) | Plant response rating, Crabgrass, Large ([8]; 125 g ai/ha, scale of 0 to 100) | Plant response rating, Crabgrass, Large ([8]; 62 g ai/ha, scale 0 to 100) | Plant response rating, Foxtail, Giant ([12]; 125 g ai/ha, scale of 0 to 100) | Ryegrass, Italian plant response rating ([14]; 500 g ai/ha) | Plant response rating, Foxtail, Giant ([15]; 125 g ai/ha) | Foxtail, Giant plant response rating ([15]; 500 g ai/ha) | Plant response rating, Pigweed ([16]; 125 g ai/ha) | Pigweed plant response rating ([16]; 500 g ai/ha)
20: Plant response rating, Soybean (soybean (Glycine max); 125 g ai/ha, scale of 0 to 100) | Plant response rating, Ragweed ([13]; 125 g ai/ha)
35: Plant response rating, Ragweed ([3]; 125 g ai/ha, scale of 0 to 100) | Plant response rating, Crabgrass, Large ([8]; 16 g ai/ha, scale 0 to 100)
